Assay results: patent publication US12390534B2, “Branched degradable polyethylene glycol binder” (NOF CORPORATION, priority 2019, dated 2025)
Bridge positions count the residues as written; N and C are the ends. Ends that are not written are not given here.

Tested on: plasma calcium concentration
Experiment: Evaluation of physiological activity of PEGylated salmon calcitonin (blood calcium concentration)
Type: in vivo, mouse
Set-up: dose or concentration left out as unconfirmed
Conditions: Balb/c mice, sCT dose, plasma at 1, 6, 24 hr, compared to PBS group, FIG. 16
Experimental: The method for evaluating the physiological activity of a degradable polyethylene glycol derivative-bonded bio-related substance is not particular limited. For example, when the bio-related substance is insulin, blood sugar concentration is measured, and when it is calcitonin, blood calcium concentration is measured, by periodically collecting blood from the animal that received administration and measuring the substance in the blood by using an appropriate analytical instrument, and the like, based on which the evaluation can be performed. Specifically, in the case of insulin, a glucose measurement kit is used to monitor a decrease in glucose concentration after administration and, in the case of calcitonin, a decrease in calcium concentration after administration is monitored using a calcium measurement kit, based on which the evaluation can be performed.
The physiological activities of 4 groups of sCT-E(FG-200ME)2 which is SCT to which degradable polyethylene glycol derivative with a molecular weight of 40,000 is bonded and methoxy PEG 40 kDa-sCT, in which non-degradable methoxy PEG 40 kDa is bonded, each of which is obtained in Example 9, unmodified sCT, and PBS were comparatively evaluated in animal experiments. […]

Unmodified sCT: salmon calcitonin (sCT) with the amino acid sequence CSNLSTCVLGKLSQELHKLQTYPRTNTGSGTP (SEQ ID NO: 1) (CSNLSTCVLGKLSQELHKLQTYPRTNTGSGTP-NH2; disulfide 1-7; ends not checked; listed as Oncorhynchus keta)
plasma calcium concentration after administration (in words): showed an increase in calcium concentration from 6 hr after administration
